Laboratory results from patent publication US8299092B2, “Derivatives of 2-phenyl-3-hydroxyquinoline-4(1H)-one and methods of their preparation and utilization” (Univerzita Palackeho, priority 2006, dated 2012).
Like-named read-outs stand apart in the source and are kept apart here.

What was measured:
[1] = tested on: A549 (human lung adenocarcinoma); test: MTT cytotoxic test, A549; format: cell-based; conditions: A 549 cells, mean (x), read-out: Cytotoxic and antiproliferation activity MTT test (IC50, μM) A 549 x
From the text: (§1) In order to evaluate antitumour activity of the new prepared substances in vitro, we used the MTT cytotoxic test on cell lines derived from normal tissues and tumours. In particular, they included the NIH 3T3 (mouse fibroblasts), K562 (human myeloid leukaemia), K562-tax (human myeloid leukaemia resistant to taxol and the overexpressing protein of the PgP multiple drug resistance), CEM (T-lymphoblastic leukaemia), CEM-DNR-bulk (T-lymphoblastic leukaemia resistant to doxorubicine, lacking the expression of target gene for inhibitors of topoisomerase II alpha) and the line A549 (human lung adenocarcinoma).

[2] = tested on: CEM-DNR-bulk (T-lymphoblastic leukaemia resistant to doxorubicine); test: MTT cytotoxic test, CEM-DNR-bulk; format: cell-based; conditions: CEM-DNR-BULK cells, mean (x); read-out: Cytotoxic and antiproliferation activity MTT test (IC50, μM) CEM-DNR-BULK x
From the text: as §1

[3] = tested on: K562 (human myeloid leukaemia); test: MTT cytotoxic test, K562; format: cell-based; conditions: K 562 cells, mean (x), read-out: Cytotoxic and antiproliferation activity MTT test (IC50, μM) K 562 x
From the text: as §1

[4] = tested on: K562-tax (human myeloid leukaemia resistant to taxol); test: MTT cytotoxic test, K562-tax; format: cell-based; conditions: K562-TAX cells, mean (x), read-out: Cytotoxic and antiproliferation activity MTT test (IC50, μM) K562-TAX x
From the text: as §1

[5] = tested on: CEM (T-lymphoblastic leukaemia); test: MTT cytotoxic test, CEM; format: cell-based; conditions: CEM cells, mean (x), read-out: Cytotoxic and antiproliferation activity MTT test (IC50, μM) CEM x
From the text: as §1

[6] = tested on: concavaline A-stimulated human lymphocytes; test: MTT test, inhibition of lymphocyte activation with ConA; format: cell-based; conditions: 5 μg/ml, mean (x)
From the text: The proliferation response of isolated lymphocytes to polyclonal mitogens belongs to the most important parameters of specific cell immunity. Most of the human lymphocytes occur in quiet state. Antigens or polyclonal mitogens, however, are capable of activating lymphatic cells, which is accompanied by dramatic changes of their cell metabolism (enhanced mitochondrial activity, protein and nucleic acid synthesis, formation of blastic cells and proliferations). Substances having the capability to suppress such processes show immunosuppressive activity in clinical conditions and, therefore, these tests can be used for screening tests of immunosuppressive activity in vitro. On this account, we use the above-mentioned MTT test, which evaluates both the survival and the proliferation activity of quiet vs. polyclonal-mitogen (concavaline A, 5 μg/ml)-stimulated human lymphocytes to screen the immunosuppressive activity of new substances (Jegorov et al., J. Mass. Spetrom., 2006).

| SMILES | IC50 [1] [µM] | IC50 [2] [µM] | IC50 [3] [µM] | IC50 [4] [µM] | IC50 [5] [µM] | IC50 [6] [µM] | other results |
| --- | --- | --- | --- | --- | --- | --- | --- |
| O=c1c(O)c(-c2ccc(N3CCN(CCO)CC3)c([N+](=O)[O-])c2)[nH]c2ccccc12 |  |  |  |  |  |  | melting point: 218 to 221 °C |
| C/C=C/CCSc1ccc(-c2[nH]c3ccccc3c(=O)c2O)cc1[N+](=O)[O-] | 4.3 | 3.2 | 9.3 | 5.2 | 2.1 |  |  |
| O=c1c(O)c(-c2ccc3c(c2)ncn3CC(F)(F)F)[nH]c2ccccc12 |  |  |  |  |  | 4.2 |  |
| O=c1c(O)c(-c2ccc(Cl)c([N+](=O)[O-])c2)[nH]c2ccccc12 [Cl, 2-(4-Chlorine-3-nitrophenyl)-3-hydroxyquinoline-4(1H)-one] | 4.2 | 3.5 | 2.3 | 3.2 | 2.6 |  |  |
| O=c1c(O)c(-c2ccc(N3CCN(CCOCCO)CC3)c([N+](=O)[O-])c2)[nH]c2ccccc12 [Example 5, 3-Hydroxy-2-(4-{4-[2-(2-hydroxyethoxy)ethyl]piperazine-1-yl}-3-nitrophenyl)quinoline-4(1H)-one] |  |  |  |  |  |  | melting point: 203 to 204 °C |
| CCNc1ccc(-c2[nH]c3ccccc3c(=O)c2O)cc1[N+](=O)[O-] [Example 6, 2-[4-(Ethylamino)-3-nitrophenyl]-3-hydroxyquinoline-4(1H)-one] |  |  |  |  |  |  | melting point: 282 to 285 °C |
| O=c1c(O)c(-c2ccc(Sc3ccccc3)c([N+](=O)[O-])c2)[nH]c2ccccc12 [Example 7, 3-Hydroxy-2-[3-nitro-4-(phenylthio)phenyl]quinoline-4(1H)-one] |  |  |  |  |  |  | melting point: 322 to 324 °C |
| O=c1c(O)c(-c2ccc(-n3ccnc3)c([N+](=O)[O-])c2)[nH]c2ccccc12 [Example 8, 3-Hydroxy-2-[4-(1H-imidazole-1-yl)-3-nitrophenyl]quinoline-4(1H)-one] |  |  |  |  |  |  | melting point: 278 to 280 °C |
| O=c1c(O)c(-c2ccc(F)c([N+](=O)[O-])c2)[nH]c2ccccc12 [F] |  |  |  |  |  | 3.8 |  |
| CCN(CC)CCn1cnc2cc(-c3[nH]c4ccccc4c(=O)c3O)ccc21 [—(CH2)2N(C2H5)2] | 3.5 | 71.2 | 2.1 | 6.5 | 5.2 |  |  |
| O=c1c(O)c(-c2ccc3c(c2)ncn3CCSCCO)[nH]c2ccccc12 [—(CH2)2S(CH2)2OH] | 3.6 | 2.2 | 3.1 | 4.5 | 0.8 |  |  |
| CCCCCCn1cnc2cc(-c3[nH]c4ccccc4c(=O)c3O)ccc21 [—(CH2)5CH3] | 44.3 | 54 | 8.5 | 35 | 2.8 |  |  |
| O=CNCCn1cnc2cc(-c3[nH]c4ccccc4c(=O)c3O)ccc21 [—CH2CH2NHCHO] |  |  |  |  |  | 1.1 |  |
| CCCN(CCC)c1ccc(-c2[nH]c3ccccc3c(=O)c2O)cc1[N+](=O)[O-] [—N(CH2CH2CH3)2] | 1.1 | 2.2 | 0.6 | 1.2 | 0.7 | 0.9 |  |
| O=c1c(O)c(-c2ccc(N(CCO)CCO)c([N+](=O)[O-])c2)[nH]c2ccccc12 [—N(CH2CH2OH)2] | 224 | 143 | 187 | 198 | 0.3 | 0.9 |  |
| CCN(C)c1ccc(-c2[nH]c3ccccc3c(=O)c2O)cc1[N+](=O)[O-] [—N(CH3)(CH2CH3)] | 66.5 | 129 | 0.7 | 163 | 1.7 | 5.7 |  |
| O=c1c(O)c(-c2ccc(NCCO)c([N+](=O)[O-])c2)[nH]c2ccccc12 [—NH(CH2)2OH] | 46.8 | 98.8 | 7.3 | 44.9 | 2.7 | 3.8 |  |
| O=c1c(O)c(-c2ccc(NCCCO)c([N+](=O)[O-])c2)[nH]c2ccccc12 [—NH(CH2)3OH, 3-Hydroxy-2-{4-[(3-hydroxypropyl)amino]-3-nitrophenyl}quinoline-4(1H)-one] |  | 46.3 |  |  |  |  | IC50 ([1]; Homo sapiens, A549): 12.4 µM; melting point: 233 to 236 °C; IC50 ([3]; Homo sapiens, K562): 6.2 µM; IC50 ([6]; Lymphocyte): 0.8 µM; IC50 ([4]; Homo sapiens): 12.9 µM; IC50 ([5]; Homo sapiens, CCRF-CEM): 1.4 µM |
| O=c1c(O)c(-c2ccc(NCCCCO)c([N+](=O)[O-])c2)[nH]c2ccccc12 [—NH(CH2)4OH] | 5.7 | 15.1 | 1.8 | 8.6 | 0.7 | 1.1 |  |
| O=c1c(O)c(-c2ccc(NCCCCCO)c([N+](=O)[O-])c2)[nH]c2ccccc12 [—NH(CH2)5OH] | 5.3 | 10.8 | 2.8 | 5.7 | 1 | 0.6 |  |
| CC(C)Nc1ccc(-c2[nH]c3ccccc3c(=O)c2O)cc1[N+](=O)[O-] [—NHCH(CH3)2] | 2.8 | 6.8 | 2.1 | 3 | 1.6 | 4.8 |  |
